Each compound was assayed against T1, hP2X3 (human Purinergic P2X receptors subtype 3), clone B (Homo sapiens, UniProt P56373) (assay: hP2X3 FLIPR calcium (Fluo-4) antagonist assay, clone B). Details: Human P2X3 FLIPR Clone B IC50 (nM), RLE cells expressing hP2X3 clone B (NM_002559); agonist 500 nM α,β-methylene-ATP.
T1 sequence (P56373 1-397): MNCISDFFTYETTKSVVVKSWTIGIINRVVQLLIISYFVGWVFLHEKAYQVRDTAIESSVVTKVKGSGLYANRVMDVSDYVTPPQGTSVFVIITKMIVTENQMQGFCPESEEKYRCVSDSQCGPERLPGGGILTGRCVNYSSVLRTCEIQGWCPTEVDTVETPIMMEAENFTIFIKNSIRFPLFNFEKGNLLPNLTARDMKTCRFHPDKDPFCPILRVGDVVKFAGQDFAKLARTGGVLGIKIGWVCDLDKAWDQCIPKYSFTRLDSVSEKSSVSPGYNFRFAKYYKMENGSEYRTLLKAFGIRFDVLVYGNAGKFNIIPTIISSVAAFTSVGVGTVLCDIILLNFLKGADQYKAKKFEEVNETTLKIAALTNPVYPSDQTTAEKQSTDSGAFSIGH

Row | IC50 [nM] | Compound
1 | 1800 | CC(=O)N1CCN(c2nc3c(c(N4CCC[C@@H]4C(=O)N4CCc5ccccc54)n2)CN(C(C)C)C3=O)CC1 [Example 279, 4-(4-acetylpiperazin-1-yl)-2-[(2R)-2-(2,3-dihydroindole-1-carbonyl)pyrrolidin-1-yl]-8-propan-2-yl-3,5,8-triazabicyclo[4.3.0]nona-1,3,5-trien-7-one]
2 | 100 | CC(C)N1Cc2c(NC(c3ccccc3)c3ccc(Cl)cc3)nc(N3CC4CC3CN4C)nc2C1=O (stereo not drawn) [Example 20, 4-{[(4-chlorophenyl)(phenyl)methyl]amino}-6-isopropyl-2-(5-methyl-2,5-diazabicyclo[2.2.1]hept-2-yl)-5,6-dihydro-7H-pyrrolo[3,4-d]pyrimidin-7-one]
3 | 290 | CC(=O)N1CCN(c2nc(N[C@H](C)c3ccc(Cl)c(C(F)(F)F)c3)c3c(n2)C(=O)N(C(C)C)C3)CC1 [Example 171, (R)-2-(4-acetylpiperazin-1-yl)-4-(1-(4-chloro-3-(trifluoromethyl)phenyl)ethylamino)-6-isopropyl-5H-pyrrolo[3,4-d]pyrimidin-7(6H)-one]
4 | 390 | CCOc1ccc(C(C)N(C)c2nc(N3CCN(C(C)=O)CC3)nc3c2CN(C(C)C)C3=O)cc1 (stereo not drawn) [Example 157, 2-(4-acetylpiperazin-1-yl)-4-((1-(4-ethoxyphenyl)ethyl)(methyl)amino)-6-isopropyl-5H-pyrrolo[3,4-d]pyrimidin-7(6H)-one]
5 | 750 | CC(=O)N1CCN(c2nc(NC(C)c3ccc(Cl)cc3)c3c(n2)C(=O)N(C(C)C)C3)CC1 (stereo not drawn) [Example 53, 2-(4-acetylpiperazin-1-yl)-4-{[1-(4-chlorophenyl)ethyl]amino}-6-isopropyl-5,6-dihydro-7H-pyrrolo[3,4-d]pyrimidin-7-one]
6 | 870 | CC(=O)N1CCN(c2nc3c(c(N4CCCC4CCc4ccccc4)n2)CN(C(C)C)C3=O)CC1 (stereo not drawn) [Example 271, 4-(4-acetylpiperazin-1-yl)-2-(2-phenethylpyrrolidin-1-yl)-8-propan-2-yl-3,5,8-triazabicyclo[4.3.0]nona-1,3,5-trien-7-one]
7 | 1100 | CC(C)N1Cc2c(NC(c3ccccc3)c3ccccc3)nc(NCCO)nc2C1=O [Example 100]
8 | 4400 | CC(=O)N1CCN(c2nc(N[C@H](C)c3ccccc3C(F)(F)F)c3c(n2)C(=O)N(C(C)C)C3)CC1 [Example 226, (R)-2-(4-acetylpiperazin-1-yl)-6-isopropyl-4-(1-(2-(trifluoromethyl)phenyl)ethylamino)-5H-pyrrolo[3,4-d]pyrimidin-7(6H)-one]
9 | 160 | CC(=O)N1CCN(c2nc(NCc3cc(C(C)(C)C)[nH]n3)c3c(n2)C(=O)N(C(C)C)C3)CC1 [Example 143, 4-(4-acetylpiperazin-1-yl)-8-propan-2-yl-2-[(5-tert-butyl-1H-pyrazol-3-yl)methylamino]-3,5,8-triazabicyclo[4.3.0]nona-1,3,5-trien-7-one]
10 | 10000 | CCN(Nc1nc(N2CCN(C(C)=O)CC2)nc2c1CN(C(C)C)C2=O)c1ccc(C)cc1 [Example 39, 2-(4-acetylpiperazin-1-yl)-4-[2-ethyl-2-(4-methylphenyl)hydrazino]-6-isopropyl-5,6-dihydro-7H-pyrrolo[3,4-d]pyrimidin-7-one]
11 | > 30000 | O=C1c2nc(N3CCOCC3)nc(NC(c3ccccc3)c3ccccc3)c2CN1C1CCCC1 [Example 75, 4-(Benzhydryl-amino)-6-cyclopentyl-2-morpholin-4-yl-5,6-dihydro-pyrrolo[3,4-d]pyrimidin-7-one]
12 | 75 | CC(=O)N1CCN(c2nc3c(c(N(Cc4cc5ccccc5cn4)C(C)C)n2)CN(C(C)C)C3=O)CC1 [Example 254, 2-(4-acetylpiperazin-1-yl)-6-isopropyl-4-(isopropyl(isoquinolin-3-ylmethyl)amino)-5H-pyrrolo[3,4-d]pyrimidin-7(6H)-one]
13 | 590 | CC(=O)N1CCN(c2nc(NCc3nc(C4CCCC4)no3)c3c(n2)C(=O)N(C(C)C)C3)CC1 [Example 276, 4-(4-acetylpiperazin-1-yl)-2-[(3-cyclopentyl-1,2,4-oxadiazol-5-yl)methylamino]-8-propan-2-yl-3,5,8-triazabicyclo[4.3.0]nona-1,3,5-trien-7-one]
14 | 450 | CC(=O)N(C)C1CCN(c2nc(NC(C)(C)Cc3ccc(Cl)cc3)c3c(n2)C(=O)N(C(C)C)C3)C1 (stereo not drawn) [Example 67, N-[1-(4-{[2-(4-chlorophenyl)-1,1-dimethylethyl]amino}-6-isopropyl-7-oxo-6,7-dihydro-5H-pyrrolo[3,4-d]pyrimidin-2-yl)pyrrolidin-3-yl]-N-methylacetamide]
15 | 2500 | CC(=O)N1CCN(c2nc3c(c(N4CCC[C@@H]4C(=O)OCc4ccc(Cl)cc4)n2)CN(C(C)C)C3=O)CC1 [Example 301, (4-chlorophenyl)methyl (2R)-1-[4-(4-acetylpiperazin-1-yl)-7-oxo-8-propan-2-yl-3,5,8-triazabicyclo[4.3.0]nona-1,3,5-trien-2-yl]pyrrolidine-2-carboxylate]

These compounds were tested against T2, hP2X3 (human Purinergic P2X receptors subtype 3), clone A (Homo sapiens, UniProt P56373) (assay: hP2X3 FLIPR calcium (Fluo-4) antagonist assay, clone A). Details: Human P2X3 FLIPR Clone A Mean IC50 (nM), RLE cells expressing hP2X3 clone A (AB016608); agonist 500 nM α,β-methylene-ATP.
T2 sequence (P56373 1-397): T1 sequence (P56373 1-397)
Procedure: The assay used a calcium indicator dye (Fluo-4) that emits fluorescence, the intensity of which is related to the concentration of calcium that entered the cell when P2X3 was activated and the channel opened. Activation of hP2X3 or rat P2X3 and rat P2X2/3 (from the coexpression of rat P2X3 and rat P2×2) is elicited the by P2X3 agonist α,β methylene-ATP (Sigma M6517), and the resulting fluorescence is measured with a FLIPR II™ instrument (Molecular Devices). Compounds are tested for their ability to inhibit the agonist-induced fluorescent signal.
For the rat P2X2/3 HEK-TREX cells, induction of the rat P2X3 expression is used to generate the rat P2X2/3 channels in HEK-TREX cells and performed by addition of 1 μg/mL tetracycline (Invitrogen) 24 h prior to compounds testing to the HEK-TREX expressing the rat P2X2 constitutively. On the day of the experiment, the cells and test compounds are prepared as follows. […] After preparing the compounds, the medium is removed from the cell plates by inversion. A loading solution of 30 μL assay buffer containing 4 μM of the calcium indicator dye FLUO-4 AM (Molecular Probes F14202) is added to each well using a Multidrop (Labsystems). […] The incubation is terminated by washing the cells four times in assay buffer using a Skatron Embla (Molecular Devices), and 25 μL of assay buffer was left in each well. Cell plates are then transferred to the FLIPR. Experiments are initiated by measuring a baseline fluorescence reading for 10 seconds, followed by the addition of 12.5 μL of cpds and data sampling for a total 280 seconds. The experiments are terminated by addition of 12.5 μL of a reference agonist (500 nM α,β-methylene-ATP) or buffer, producing a final assay volume of 50 μL followed by data sampling for an additional 280 seconds.
In P2X3 antagonist experiments (human and rat assays) data are analysed as normalised maximal peak fluorescence monitored following agonist addition and calculated as percent of relative fluorescent counts from control agonist. The dose-response antagonist inhibition curves are analyzed in a 4-parameter sigmoidal fit using a non-linear curve-fitting program (XLfit version 5.0.6, ID Business Solutions Limited, Guildford, UK).

Row | IC50 [nM] | Compound
16 | 2280 | CC(=O)N1CCN(c2nc3c(c(N(C)Cc4cnn(-c5ccc(F)cc5)c4)n2)CN(C(C)C)C3=O)CC1 [Example 339, 2-(4-acetylpiperazin-1-yl)-4-[{[1-(4-fluorophenyl)-1H-pyrazol-4-yl]methyl}(methyl)amino]-6-(1-methylethyl)-5,6-dihydro-7H-pyrrolo[3,4-d]pyrimidin-7-one]
17 | 179 | CC(=O)N1CCN(c2nc(NC(C)c3ccc4c(c3)CC(C)O4)c3c(n2)C(=O)N(C(C)C)C3)CC1 (stereo not drawn) [Example 324, 2-(4-acetylpiperazin-1-yl)-6-isopropyl-4-(1-(2-methyl-2,3-dihydrobenzofuran-5-yl)ethylamino)-5H-pyrrolo[3,4-d]pyrimidin-7(6H)-one]
18 | 235 | CCCOc1ccc([C@@H](C)Nc2nc(N3CCN(C(C)=O)CC3)nc3c2CN(C(C)C)C3=O)cc1F [Example 193, (R)-2-(4-acetylpiperazin-1-yl)-4-(1-(3-fluoro-4-propoxyphenyl)ethylamino)-6-isopropyl-5H-pyrrolo[3,4-d]pyrimidin-7(6H)-one]
19 | 327 | CCOc1ccc([C@@H](C)Nc2nc(N3CCN(CC)C(=O)C3)nc3c2CN(C(C)C)C3=O)cc1 [Example 361, (R)-4-(1-(4-ethoxyphenyl)ethylamino)-2-(4-ethyl-3-oxopiperazin-1-yl)-6-isopropyl-5H-pyrrolo[3,4-d]pyrimidin-7(6H)-one]
20 | 195 | CCOc1ncc([C@@H](C)Nc2nc(N3CCN(C(C)=O)CC3)nc3c2CN(C(C)C)C3=O)cc1C [Example 331, (R)-2-(4-acetylpiperazin-1-yl)-4-(1-(6-ethoxy-5-methylpyridin-3-yl)ethylamino)-6-isopropyl-5H-pyrrolo[3,4-d]pyrimidin-7(6H)-one]
21 | 29.2 | CC(=O)N1CCN(c2nc3c(c(N(C)Cc4cc5ccc(Cl)cc5cn4)n2)CN(C(C)C)C3=O)CC1 [Example 341, 2-(4-acetylpiperazin-1-yl)-4-(((7-chloroisoquinolin-3-yl)methyl)(methyl)amino)-6-isopropyl-5H-pyrrolo[3,4-d]pyrimidin-7(6H)-one]
22 | 283 | CCOc1ncc([C@@H](C)Nc2nc(N3CCN(C(C)=O)CC3)nc3c2CN(C(C)C)C3=O)cc1Cl [Example 194, (R)-2-(4-acetylpiperazin-1-yl)-4-(1-(5-chloro-6-ethoxypyridin-3-yl)ethylamino)-6-isopropyl-5H-pyrrolo[3,4-d]pyrimidin-7(6H)-one]
23 | 511 | CC(=O)N1CCN(c2nc(N[C@H](C)c3ccc4c(c3)OC(F)(F)O4)c3c(n2)C(=O)N(C(C)C)C3)CC1 [Example 359, (R)-2-(4-acetylpiperazin-1-yl)-4-(1-(2,2-difluorobenzo[d][1,3]dioxol-5-yl)ethylamino)-6-isopropyl-5H-pyrrolo[3,4-d]pyrimidin-7(6H)-one]
24 | 410 | CC(=O)N1CCN(c2nc(NCc3ccc4c(c3)CC(C)O4)c3c(n2)C(=O)N(C(C)C)C3)CC1 (stereo not drawn) [Example 323, 2-(4-acetylpiperazin-1-yl)-6-isopropyl-4-((2-methyl-2,3-dihydrobenzofuran-5-yl)methylamino)-5H-pyrrolo[3,4-d]pyrimidin-7(6H)-one]
25 | 454 | CC(=O)N1CCN(c2nc3c(c(N4CCCC4c4ccc(C)c(C)c4)n2)CN(C(C)C)C3=O)CC1 (stereo not drawn) [Example 298, 2-(4-acetylpiperazin-1-yl)-4-[2-(3,4-dimethylphenyl)pyrrolidin-1-yl]-6-(1-methylethyl)-5,6-dihydro-7H-pyrrolo[3,4-d]pyrimidin-7-one]
26 | 192 | CCOc1ccc([C@H]2CCCN2c2nc(N3CCN(C(C)=O)CC3)nc3c2CN(C(C)C)C3=O)cc1F [Example 300, 2-(4-acetylpiperazin-1-yl)-4-[(2R)-2-(4-ethoxy-3-fluorophenyl)pyrrolidin-1-yl]-6-(1-methylethyl)-5,6-dihydro-7H-pyrrolo[3,4-d]pyrimidin-7-one]
27 | > 30000 | CC(=O)N1CCN(c2nc(N[C@H](C)c3ccc(CN(C)C)cc3)c3c(n2)C(=O)N(C(C)C)C3)CC1 [Example 358, (R)-2-(4-acetylpiperazin-1-yl)-4-(1-(4-((dimethylamino)methyl)phenyl)ethylamino)-6-isopropyl-5H-pyrrolo[3,4-d]pyrimidin-7(6H)-one]
